Results reported in patent publication US11878980B2, “Solid forms of TTK inhibitor” (UNIVERSITY HEALTH NETWORK, priority 2016, dated 2024).
Where a name gives a salt, the structure may show the parent alone.

Key:
[1] = Hygroscopicity (water sorption at 90% RH); assay type: physicochemical
[2] = Pharmacokinetic analysis after single oral powder-in-capsule dose, dog plasma by LC/MS; assay type: in vivo, beagle dogs; details: for AUC0-last / Cmax: Dog, PO, 5 mg/kg; for plasma concentrations relative to free base compound (I) (in words): beagle dogs, oral
Method: (§1) A single oral, powder-in-capsule dose of each form was administered to three (n=3) female Sprague-Dawley rats and three male beagle dogs (n=3) at 5 mg active pharmaceutical ingredient per kg body weight. The plasma was then analyzed for compound plasma levels by LC/MS.
(§2) Compound was milled using a mortar and pestle and was carefully dispensed into a gelatin capsule, tared on an analytical balance. Loading continued until the desired compound mass was achieved. Size 9 capsules were used for rat dosing and size 3 capsules were used for dogs. Note: compound load was corrected for the bioequivalence ratio of each form.
(§3) Following oral dosing, blood was drawn from the lateral saphenous vein into lithium heparin coated tubes (rats) or K2EDTA coated tubes (dogs), at designated time points. Plasma was collected and stored frozen at −80° C. until analysis.
Plasma samples (20 μL) and spiked plasma standard samples were diluted eleven fold with ice cold acetonitrile containing 40 ng/mL Diclofenac as internal standard. The mixture was vortexed for 2 min and centrifuged. The 0.5 μL supernatant was injected into a Waters Acquity BEH 1.7 μm 2.1×50 mm column at 0.6 mL/min by an Acquity UPLC. The column was equilibrated with 10% methanol in water. Compounds were eluted with a gradient to 95% methanol. Mobile phases contained 0.025% (v/v) formic acid and 1 mM NH4OAc.
Column eluent was analyzed by an electrospray ionization tandem quadrupole mass spectrometry system (ESI-MS/MS, an API-6500). Eluent composition was analyzed for one ion-pairs specific for the internal standard and one ion-pairs specific for the analyte. Experimental samples were compared with standard curve samples to determine compound concentrations. Pharmacokinetic parameters were determined using WinNonlin Professional 6.2.

[3] = Pharmacokinetic analysis after single oral powder-in-capsule dose, rat plasma by LC/MS; assay type: in vivo, Sprague-Dawley rats; details: for AUC0-last / Cmax: Rat, PO, 5 mg/kg; for plasma concentrations relative to free base compound (I) (in words): Sprague Dawley rats, oral
Method: as §1, §2, §3
Plasma samples (20 μL) and spiked plasma standard samples were diluted five-fold with ice cold acetonitrile containing 100 ng/mL verapamil as internal standard. Samples and standards were filtered through 0.22 μm membranes in a 96-well format. Filtrates were then diluted with water to 30% acetonitrile.
10 μL of each sample and standard was injected onto a Waters Acquity CSH 1.7 μm 2.1×100 mm column at 0.6 mL/min by an Acquity UPLC. The C18 column was equilibrated at 5% acetonitrile in water. Compounds were eluted with a gradient to 99% acetonitrile. All mobile phases contained 0.1% (v/v) formic acid.
Column eluent was analyzed by an electrospray ionization tandem quadrupole mass spectrometry system (ESI-MS/MS, a Waters Xevo TQ). Eluent composition was analyzed for three ion-pairs specific for the internal standard and three ion-pairs specific for the analyte. Experimental samples were compared with standard curve samples to determine compound concentrations. Pharmacokinetic parameters were determined using the Excel plug-in “PKfit”.

[4] = Solubility (Solubilitymax, pHmax) of crystalline forms; assay type: physicochemical

SMILES	Hygroscopicity (water sorption at 90% RH) [1]	AUC0-last [2]	Cmax [2]	plasma concentrations relative to free base compound (I) (in words) [2]	AUC0-last [3]	Cmax [3]	plasma concentrations relative to free base compound (I) (in words) [3]	Solubilitymax [4]	pHmax [4]
Cc1cc(-c2cnn3c(NC[C@H]4C[C@@](C)(O)C4)cc(Oc4cccnc4)nc23)ccc1C(=O)NC1CC1 [Compound (I) bisphosphate hemihydrate]	3.9%	4000 ng·h/mL	830 ng/mL	increased plasma concentrations	2100 ng·h/mL	1120 ng/mL	increased plasma concentrations	100 µg/mL	<1.14
Cc1cc(-c2cnn3c(NC[C@H]4C[C@@](C)(O)C4)cc(Oc4cccnc4)nc23)ccc1C(=O)NC1CC1 [Compound (I) hydrobromide]	2.3%	2760 ng·h/mL	570 ng/mL	increased plasma concentrations	1640 ng·h/mL	260 ng/mL	increased plasma concentrations	630 µg/mL	0.79
Cc1cc(-c2cnn3c(NC[C@H]4C[C@@](C)(O)C4)cc(Oc4cccnc4)nc23)ccc1C(=O)NC1CC1 [Compound (I), N-cyclopropyl-4-(7-((((1s,3s)-3-hydroxy-3-methylcyclobutyl)methyl)amino)-5-(pyridin-3-yloxy)pyrazolo[1,5-a]pyrimidin-3-yl)-2-methylbenzamide]	0.8%	40 ng·h/mL	8 ng/mL		140 ng·h/mL	11 ng/mL		<1 µg/mL	
Cc1cc(-c2cnn3c(NC[C@H]4C[C@@](C)(O)C4)cc(Oc4cccnc4)nc23)ccc1C(=O)NC1CC1 [Compound I-monohydrate]								<1 µg/mL	
